Inhibition data for 44 compounds are collected here from patent US11952387B2, “Bicyclic heteroaromatic ring derivative” (priority 2018, dated 2024).

Bounds are passed on as bounds.

What is called inhibition is the change of the read-out against control, counted positive when it falls.

This test has as its system HRV14. Kind of test: Inhibitory activity against human rhinovirus infection and replication (quantitative real-time PCR). Format: cell-based. As to conditions: Human rhinovirus sp., MRC5; 100 nmol/L test compound; MRC-5 cells infected with HRV14 at MOI=0.2; 48 hours; viral load normalized to 18s rRNA; read-out: Percent Inhibition. The method in brief:
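Near-confluent MRC-5 cells were pretreated 30 min with compound at 100 or 1000 nmol/L, then infected with HRV14 (MOI 0.2) in compound-containing medium (2% FBS, 30 mmol/L MgCl2) and cultured 48 h at 35 °C. HRV14 RNA by qRT-PCR, normalized to 18S rRNA; percent inhibition versus untreated infected cells.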
On to `COc1ccc(-c2c(C)nc3sc(C(O)(C4CC4)C4CC4)nn23)cc1S(=O)(=O)[C@H]1C[C@@H](O)C1` [Example 2-96], for which the inhibition at 0.1 µM was greater than 80%.

Regarding `[2H]C([2H])([2H])C(O)(CS(=O)(=O)c1cc(-c2c(C)nc3sc(C(C)(C)O)nn23)ccc1C(F)(F)F)C([2H])([2H])[2H]` [Example 2-97], the inhibition at 0.1 µM is greater than 80%.

As to `COc1ccc(-c2c(C)nc3sc(C(O)(C4CC4)C4CC4)nn23)cc1S(=O)(=O)CC(C)(C)C#N` [Example 2-98], the inhibition at 0.1 µM was greater than 80%.

For `Cc1nc2sc(C(C)(C)O)nn2c1-c1ccc(C(F)(F)F)c(S(=O)(=O)NC2(C(C)(C)O)CC2)c1` [Example 3-2], the inhibition at 0.1 µM is greater than 80%.

Regarding `COc1ccc(-c2c(C)nc3sc(C(C)(C)O)nn23)cc1S(=O)(=O)Nc1ccc(C(C)(C)O)cc1` [Example 3-3], the inhibition at 0.1 µM was no more than 50%.

Consider `COc1ccc(-c2c(C)nc3sc(C(C)(C)O)nn23)cc1S(=O)(=O)C(C)(C)CO` [Example 4-1], for which the inhibition at 0.1 µM was greater than 80%.

On to `Cc1nc2sc(C(C)(C)O)nn2c1-c1ccc(C(F)(F)F)c(S(=O)(=O)C2(CO)CC2)c1` [Example 4-2], for which the inhibition at 0.1 µM is greater than 80%.

With `Cc1nc2sc(C(C)(C)O)nn2c1-c1ccc(C(F)(F)F)c(S(=O)(=O)C(C)(C)CO)c1` [Example 4-3], the inhibition at 0.1 µM is greater than 80%.

With `COc1ccc(-c2c(C)nc3sc(C(C)(C)O)nn23)cc1S(=O)(=O)C1(CO)CC1` [Example 4-4], the inhibition at 0.1 µM is 50 to 80%.

As for `COc1ccc(-c2c(C)nc3sc(C(O)(C4CC4)C4CC4)nn23)cc1S(=O)(=O)C(C)(C)CO` [Example 4-5], the inhibition at 0.1 µM is greater than 80%.

With `Cc1nc2sc(C(C)(C)O)nn2c1-c1ccc(C(F)(F)F)c(S(=O)(=O)C(C)(C)C(=O)O)c1` [Example 5], the inhibition at 0.1 µM was no more than 50%.

In the case of `COc1ccc(-c2c(C)nc3sc(C(C)(C)O)nn23)cc1S(=O)(=O)C(C)(C)C(N)=O` [Example 6-1], the inhibition at 0.1 µM was in the range of 50 to 80%.

Take `Cc1nc2sc(C(C)(C)O)nn2c1-c1ccc(C(F)(F)F)c(S(=O)(=O)C(C)(C)C(N)=O)c1` [Example 6-2]: the inhibition at 0.1 µM is no more than 50%.

For the compound `COc1ccc(-c2c(C)nc3sc(C(O)(C4CC4)C4CC4)nn23)cc1S(=O)(=O)C(C)(C)C(N)=O` [Example 6-3], the inhibition at 0.1 µM was greater than 80%.

With `COc1c(F)cc(-c2c(C)nc3sc(C(O)(C4CC4)C4CC4)nn23)cc1S(=O)(=O)C(C)(C)C(N)=O` [Example 6-4], the inhibition at 0.1 µM is greater than 80%.

As for `COc1ccc(-c2c(C)nc3sc(C(C)(C)O)nn23)cc1S(=O)(=O)C(C)(C)C#N` [Example 7-1], the inhibition at 0.1 µM is greater than 80%.

In the case of `COc1ccc(-c2c(C)nc3sc(C(O)(C4CC4)C4CC4)nn23)cc1S(=O)(=O)C(C)(C)C#N` [Example 7-2], the inhibition at 0.1 µM was greater than 80%.

In the case of `CNC(=O)C(C)(C)S(=O)(=O)c1cc(-c2c(C)nc3sc(C(C)(C)O)nn23)ccc1OC` [Example 8-1], the inhibition at 0.1 µM is 50 to 80%.

On to `COc1ccc(-c2c(C)nc3sc(C(O)(C4CC4)C4CC4)nn23)cc1S(=O)(=O)C(C)(C)C(=O)NCC(C)(C)O` [Example 8-3], for which the inhibition at 0.1 µM is greater than 80%.

As for `CNC(=O)C(C)(C)S(=O)(=O)c1cc(-c2c(C)nc3sc(C(O)(C4CC4)C4CC4)nn23)ccc1OC` [Example 8-4], the inhibition at 0.1 µM was greater than 80%.

Consider `Cc1nc2sc(C(C)(C)O)nn2c1-c1ccc(C(F)(F)F)c(S(=O)(=O)C2CN(S(C)(=O)=O)C2)c1` [Example 9-1], for which the inhibition at 0.1 µM is greater than 80%.

For the compound `COc1ccc(-c2c(C)nc3sc(C(C)(C)O)nn23)cc1S(=O)(=O)C1CN(S(C)(=O)=O)C1` [Example 9-2], the inhibition at 0.1 µM lay within 50 to 80%.

As for `COc1ccc(-c2c(C)nc3sc(C(O)(C4CC4)C4CC4)nn23)cc1S(=O)(=O)C1CN(S(C)(=O)=O)C1` [Example 9-3], the inhibition at 0.1 µM is greater than 80%.

With `CC(=O)N1CC(S(=O)(=O)c2cc(-c3c(C)nc4sc(C(C)(C)O)nn34)ccc2C(F)(F)F)C1` [Example 10-1], the inhibition at 0.1 µM was greater than 80%.

`COc1ccc(-c2c(C)nc3sc(C(C)(C)O)nn23)cc1S(=O)(=O)C1CN(C(C)=O)C1` [Example 10-2]: the inhibition at 0.1 µM is no more than 50%.

Consider `COc1ccc(-c2c(C)nc3sc(C(O)(C4CC4)C4CC4)nn23)cc1S(=O)(=O)C1CN(C(C)=O)C1` [Example 10-3], for which the inhibition at 0.1 µM is greater than 80%.

For `Cc1nc2sc(C(C)(C)O)nn2c1-c1ccc(C(F)(F)F)c(S(=O)(=O)C2CN(C(N)=O)C2)c1` [Example 11], the inhibition at 0.1 µM was no more than 50%.

For the compound `Cc1nc2sc(C(C)(C)O)nn2c1-c1ccc(C(F)(F)F)c(S(=O)(=O)C2CN(C)C2)c1` [Example 12-1], the inhibition at 0.1 µM fell in the range of 50 to 80%.

In the case of `Cc1nc2sc(C(C)(C)O)nn2c1-c1ccc(C(F)(F)F)c(S(=O)(=O)C2CN(CCO)C2)c1` [Example 12-2], the inhibition at 0.1 µM was in the range of 50 to 80%.

With `COc1ccc(-c2c(C)nc3sc(C(C)(C)O)nn23)cc1S(=O)(=O)C1CCC(=O)CC1` [Example 13], the inhibition at 0.1 µM is no more than 50%.

Regarding `COc1ccc(-c2c(C)nc3sc(C(C)(C)O)nn23)cc1S(=O)(=O)C1CCC(O)CC1` (centres unmarked) [Example 14], the inhibition at 0.1 µM is no more than 50%.

Consider `COc1ccc(-c2c(C)nc3sc(C(C)(C)O)nn23)cc1S(=O)(=O)[C@H]1CC[C@@](C)(O)CC1` [Example 15-1], for which the inhibition at 0.1 µM was no more than 50%.

Regarding `COc1ccc(-c2c(C)nc3sc(C(C)(C)O)nn23)cc1S(=O)(=O)[C@H]1CC[C@](C)(O)CC1` [Example 15-2], the inhibition at 0.1 µM fell in the range of 50 to 80%.

`Cc1nc2sc(C(C)(C)O)nn2c1-c1ccc(O)c(S(=O)(=O)CC(C)(C)O)c1` [Example 16]: the inhibition at 0.1 µM is no more than 50%.

For the compound `Cc1nc2sc(C(C)(C)O)nn2c1-c1ccc(CO)c(S(=O)(=O)CC(C)(C)O)c1` [Example 17], the inhibition at 0.1 µM is no more than 50%.

`COc1ccc(-c2c(C)nc3sc(C(C)(C)C(=O)O)nn23)cc1S(=O)(=O)N[C@H]1CC[C@@H](O)CC1` [Example 18-1]: the inhibition at 0.1 µM was 50 to 80%.

For the compound `COc1ncc(-c2c(C)nc3sc(C(C)(C)C(=O)O)nn23)cc1S(=O)(=O)N[C@H]1CC[C@@H](O)CC1` [Example 18-2], the inhibition at 0.1 µM was no more than 50%.

Take `COc1ccc(-c2c(C)nc3sc(C(C)(C)C(=O)N(C)C)nn23)cc1S(=O)(=O)N[C@H]1CC[C@@H](O)CC1` [Example 19]: the inhibition at 0.1 µM is greater than 80%.

For `COc1ccc(-c2c(C)nc3sc(C(C)(C)CO)nn23)cc1S(=O)(=O)N[C@H]1CC[C@@H](O)CC1` [Example 20-1], the inhibition at 0.1 µM was greater than 80%.

Consider `COc1ncc(-c2c(C)nc3sc(C(C)(C)CO)nn23)cc1S(=O)(=O)N[C@H]1CC[C@@H](O)CC1` [Example 20-2], for which the inhibition at 0.1 µM was no more than 50%.

`COc1ccc(-c2c(C)nc3sc(C(C)(C)O)cn23)cc1S(=O)(=O)N[C@H]1CC[C@@H](O)CC1` [Example 21-1]: the inhibition at 0.1 µM was no more than 50%.

In the case of `COc1ccc(-c2c(C)nc3sc(C(C)(C)O)nn23)cc1S(=O)(=O)NC[C@H]1C[C@@H](O)C1` [Example 21-3], the inhibition at 0.1 µM fell in the range of 50 to 80%.

Take `COc1ccc(-c2c(C)nc3sc(C(C)(C)O)nn23)cc1S(=O)(=O)NCC1COC1` [Example 21-4]: the inhibition at 0.1 µM lay in the range of 50 to 80%.

Regarding `COc1ccc(-c2c(C)nc3sc(C(C)(C)O)nn23)cc1S(=O)(=O)N[C@H]1C[C@H](CO)C1` [Example 21-5], the inhibition at 0.1 µM was no more than 50%.
